# Activity calls are given as the source filed them. No cut-off for these calls is given here.
# How the values were obtained:
# AHH-1 [1] = assay: Cytotoxicity against human AHH-1 cells assessed as inhibition of cell growth incubated for 24 hrs by CCK-8 assay; assay type: functional, cell-based; conditions: AHH-1, 24 h
# Mus musculus [2] = assay: Radioprotective activity in C57BL/6J mouse assessed as survival rate at 30 mg/kg, ip preincubated with compound for 15 to 1440 mins followed by irradiation and measured at day 30; assay type: functional; conditions: light or radiation study, time 15-44640 min
# AHH-1 [3] = assay: Anti-iradiation activity against human AHH-1 cells assessed as cell viability at 10 micromol preincubated with compound for 24 hrs followed by irradiation with 8 Gy and measured after 24 hrs by CCK-8 assay; assay type: functional; conditions: dose 10 µmol; time 48 hrs
# AHH-1 [4] = assay: Induction of apoptosis in human AHH-1 cells assessed as viable cells preincubated with compound for 24 hrs followed by irradiation with 8 Gy and measured after 24 hrs of radiation by Annexin V-FITC/PI staining based flow cytometry analysis (reference value: 45.1%); assay type: functional; conditions: time 48 hrs
# AHH-1 [5] = assay: Induction of apoptosis in human AHH-1 cells assessed as early apoptotic cells preincubated with compound for 24 hrs followed by irradiation with 4 Gy and measured after 24 hrs of radiation by Annexin V-FITC/PI staining based flow cytometry analysis (reference value: 14.3%); assay type: functional; conditions: time 48 hrs
# Mus musculus [6] = assay: Radioprotective activity in irradiated C57BL/6J mouse model assessed as increase in platelets count at 300 mg/kg, ip preincubated with compound for 15 to 1440 mins followed by irradiation with 6.5 Gy and measured after 2 days of radiation; assay type: functional, organism-based; conditions: time 15-4320 min
# AHH-1 [7] = assay: Induction of apoptosis in human AHH-1 cells assessed as necrotic cells preincubated with compound for 24 hrs followed by irradiation with 6 Gy and measured after 24 hrs of radiation by Annexin V-FITC/PI staining based flow cytometry analysis (reference value: 3.71%); assay type: functional; conditions: time 48 hrs
# Mus musculus [8] = assay: Radioprotective activity in irradiated C57BL/6J mouse model assessed as increase in platelets count at 300 mg/kg, ip preincubated with compound for 15 to 1440 mins followed by irradiation with 6.5 Gy and measured after 3 to 10 days of radiation; assay type: functional, organism-based
# AHH-1 [9] = assay: Induction of apoptosis in human AHH-1 cells assessed as early apoptotic cells preincubated with compound for 24 hrs followed by irradiation with 6 Gy and measured after 24 hrs of radiation by Annexin V-FITC/PI staining based flow cytometry analysis (reference value: 14.1%); assay type: functional; conditions: time 48 hrs
# AHH-1 [10] = assay: Induction of apoptosis in human AHH-1 cells assessed as viable cells preincubated with compound for 24 hrs followed by irradiation with 6 Gy and measured after 24 hrs of radiation by Annexin V-FITC/PI staining based flow cytometry analysis (reference value: 52.3%); assay type: functional; conditions: time 48 hrs
# AHH-1 [11] = assay: Induction of apoptosis in human AHH-1 cells assessed as late apoptotic cells preincubated with compound for 24 hrs followed by irradiation with 6 Gy and measured after 24 hrs of radiation by Annexin V-FITC/PI staining based flow cytometry analysis (reference value: 29.8%); assay type: functional; conditions: time 48 hrs
# Mus musculus [12] = assay: Radioprotective activity in irradiated C57BL/6J mouse model assessed as increase in WBC count at 300 mg/kg, ip preincubated with compound for 15 to 1440 mins followed by irradiation with 6.5 Gy and measured on day 1 (reference value: 43.39%); assay type: functional; conditions: time 15-2880 min
# AHH-1 [13] = assay: Induction of apoptosis in human AHH-1 cells assessed as late apoptotic cells preincubated with compound for 24 hrs followed by irradiation with 4 Gy and measured after 24 hrs of radiation by Annexin V-FITC/PI staining based flow cytometry analysis (reference value: 17.7%); assay type: functional; conditions: time 48 hrs
# Mus musculus [14] = assay: Radioprotective activity in irradiated C57BL/6J mouse model assessed as increase in RBC count at 300 mg/kg, ip preincubated with compound for 15 to 1440 mins followed by irradiation with 6.5 Gy and measured after 13 days of radiation; assay type: functional, organism-based; conditions: Erythrocyte, time 15-20160 min
# Mus musculus [15] = assay: Radioprotective activity in irradiated C57BL/6J mouse model assessed as increase in platelets count at 300 mg/kg, ip preincubated with compound for 15 to 1440 mins followed by irradiation with 6.5 Gy and measured after 10 to 13 days of radiation; assay type: functional, organism-based
# AHH-1 [16] = assay: Induction of apoptosis in human AHH-1 cells assessed as late apoptotic cells preincubated with compound for 24 hrs followed by irradiation with 8 Gy and measured after 24 hrs of radiation by Annexin V-FITC/PI staining based flow cytometry analysis (reference value: 33.6%); assay type: functional; conditions: time 48 hrs
# AHH-1 [17] = assay: Induction of apoptosis in human AHH-1 cells assessed as early apoptotic cells preincubated with compound for 24 hrs followed by irradiation with 8 Gy and measured after 24 hrs of radiation by Annexin V-FITC/PI staining based flow cytometry analysis (reference value: 16.5%); assay type: functional; conditions: time 48 hrs
# AHH-1 [18] = assay: Induction of apoptosis in human AHH-1 cells assessed as necrotic cells preincubated with compound for 24 hrs followed by irradiation with 4 Gy and measured after 24 hrs of radiation by Annexin V-FITC/PI staining based flow cytometry analysis (reference value: 1.06%); assay type: functional; conditions: time 48 hrs
# AHH-1 [19] = assay: Induction of apoptosis in human AHH-1 cells assessed as viable cells preincubated with compound for 24 hrs followed by irradiation with 4 Gy and measured after 24 hrs of radiation by Annexin V-FITC/PI staining based flow cytometry analysis (reference value: 66.9 %); assay type: functional; conditions: time 48 hrs
# Mus musculus [20] = assay: Radioprotective activity in irradiated C57BL/6J mouse model assessed as increase in RBC count at 300 mg/kg, ip preincubated with compound for 15 to 1440 mins followed by irradiation with 6.5 Gy and measured after 10 to 13 days of radiation; assay type: functional, organism-based; conditions: Erythrocyte
# Mus musculus [21] = assay: Radioprotective activity in irradiated C57BL/6J mouse model assessed as increase in HGB count at 300 mg/kg, ip preincubated with compound for 15 to 1440 mins followed by irradiation with 6.5 Gy and measured after 1 to 10 days of radiation; assay type: functional, organism-based
# AHH-1 [22] = assay: Induction of apoptosis in human AHH-1 cells assessed as necrotic cells preincubated with compound for 24 hrs followed by irradiation with 8 Gy and measured after 24 hrs of radiation by Annexin V-FITC/PI staining based flow cytometry analysis (reference value: 4.86%); assay type: functional; conditions: time 48 hrs
# Mus musculus [23] = assay: Radioprotective activity in irradiated C57BL/6J mouse model assessed as increase in HGB count at 300 mg/kg, ip preincubated with compound for 15 to 1440 mins followed by irradiation with 6.5 Gy and measured after 13 days of radiation; assay type: functional, organism-based; conditions: time 15-20160 min
structure (smiles),measurement,setting,value
Fc1ccc(CSc2ccc3cc(Cl)ccc3n2)cc1,IC50,AHH-1 [1],153 µM
O=S(=O)(Cc1ccc(Cl)cc1)c1ccc2cc(Cl)ccc2n1,IC50,AHH-1 [1],> 640 µM
Fc1ccc2nc(SCc3ccccc3)ccc2c1,IC50,AHH-1 [1],> 640 µM
Fc1ccc(CSc2ccc3ccccc3n2)cc1,IC50,AHH-1 [1],> 640 µM
Fc1ccc(CSc2ccc3cc(F)ccc3n2)cc1,IC50,AHH-1 [1],> 640 µM
[O-][S+](Cc1ccc(Br)cc1)c1ccc2cc(Br)ccc2n1 (centres undefined),IC50,AHH-1 [1],> 640 µM
N#Cc1ccc(C[S+]([O-])c2ccc3cc(Cl)ccc3n2)cc1 (centres undefined),IC50,AHH-1 [1],> 640 µM
[O-][S+](Cc1ccc(Cl)cc1)c1ccc2cc(Cl)ccc2n1 (centres undefined),IC50,AHH-1 [1],> 640 µM
O=S(=O)(Cc1ccc(F)cc1)c1ccc2cc(Cl)ccc2n1,IC50,AHH-1 [1],> 640 µM
[O-][S+](Cc1ccc(Br)cc1)c1ccc2cc(Cl)ccc2n1 (centres undefined),IC50,AHH-1 [1],> 640 µM
N#Cc1ccc(C[S+]([O-])c2ccc3cc(Br)ccc3n2)cc1 (centres undefined),IC50,AHH-1 [1],212 µM
O=S(=O)(Cc1ccc(F)cc1)c1ccc2cc(Br)ccc2n1,IC50,AHH-1 [1],> 640 µM
[O-][S+](Cc1ccc(Cl)cc1)c1ccc2ccccc2n1 (centres undefined),IC50,AHH-1 [1],97 µM
O=S(=O)(Cc1ccc(Cl)cc1)c1ccc2ccccc2n1,IC50,AHH-1 [1],129 µM
O=S(=O)(Cc1ccc(Br)cc1)c1ccc2cc(Cl)ccc2n1,IC50,AHH-1 [1],> 640 µM
O=C(O)c1ccc(CS(=O)(=O)c2ccc3cc(F)ccc3n2)cc1,IC50,AHH-1 [1],> 640 µM
Clc1ccc(CSc2ccc3cc(Cl)ccc3n2)cc1,IC50,AHH-1 [1],> 640 µM
Brc1ccc(CSc2ccc3ccccc3n2)cc1,IC50,AHH-1 [1],174 µM
N#Cc1ccc(CSc2ccc3cc(Cl)ccc3n2)cc1,IC50,AHH-1 [1],> 640 µM
N#Cc1ccc(CS(=O)(=O)c2ccc3cc(Cl)ccc3n2)cc1,IC50,AHH-1 [1],> 640 µM
O=C(O)c1ccc(CSc2ccc3cc(Cl)ccc3n2)cc1,IC50,AHH-1 [1],> 640 µM
O=S(=O)(Cc1ccccc1)c1ccc2cc(Br)ccc2n1,IC50,AHH-1 [1],169 µM
O=C(O)c1ccc(C[S+]([O-])c2ccc3cc(F)ccc3n2)cc1 (centres undefined),IC50,AHH-1 [1],> 640 µM
same,survival at 30 mg/kg,Mus musculus [2],50%
same,Activity,AHH-1 [3],30.18%
Brc1ccc(CSc2ccc3cc(Br)ccc3n2)cc1,IC50,AHH-1 [1],> 640 µM
O=S(=O)(Cc1ccc(Br)cc1)c1ccc2ccccc2n1,IC50,AHH-1 [1],> 640 µM
Fc1ccc(CSc2ccc3cc(Br)ccc3n2)cc1,IC50,AHH-1 [1],> 640 µM
same,Activity,AHH-1 [3],26.21%
[O-][S+](Cc1ccc(Br)cc1)c1ccc2ccccc2n1 (centres undefined),IC50,AHH-1 [1],> 640 µM
[O-][S+](Cc1ccc(Cl)cc1)c1ccc2cc(Br)ccc2n1 (centres undefined),IC50,AHH-1 [1],224 µM
same,Activity,AHH-1 [3],30.63%
[O-][S+](Cc1ccc(F)cc1)c1ccc2cc(F)ccc2n1 (centres undefined),IC50,AHH-1 [1],> 640 µM
O=S(=O)(Cc1ccc(Br)cc1)c1ccc2cc(Br)ccc2n1,IC50,AHH-1 [1],> 640 µM
O=S(=O)(Cc1ccc(F)cc1)c1ccc2cc(F)ccc2n1,IC50,AHH-1 [1],> 640 µM
same,Activity,AHH-1 [3],27.51%
[O-][S+](Cc1ccccc1)c1ccc2cc(Br)ccc2n1 (centres undefined),IC50,AHH-1 [1],> 640 µM
O=C([O-])c1ccc(/C=C/S(=O)(=O)Cc2ccc(Cl)cc2)cc1.[Na+] [RECILISIB SODIUM],IC50,AHH-1 [1],> 640 µM
same,Activity,AHH-1 [4],48%
same,survival at 30 mg/kg,Mus musculus [2],40%
same,Activity,AHH-1 [5],16.5%
same,Activity,Mus musculus [6],Active
same,Activity,AHH-1 [7],7.68%
same,Activity,Mus musculus [8],inactive
same,Activity,AHH-1 [9],14.8%
same,Activity,AHH-1 [10],49.2%
same,Activity,AHH-1 [11],28.4%
same,Activity,Mus musculus [12],47.73%
same,Activity,AHH-1 [13],31.1%
same,Activity,Mus musculus [14],Active
same,Activity,Mus musculus [15],Active
same,Activity,AHH-1 [16],27.3%
same,Activity,AHH-1 [17],16.4%
same,Activity,AHH-1 [18],4.82%
same,Activity,AHH-1 [19],47.5%
same,Activity,Mus musculus [20],Active
same,Activity,Mus musculus [21],inactive
same,Activity,AHH-1 [22],8.35%
same,Activity,Mus musculus [23],Active
Brc1ccc2nc(SCc3ccccc3)ccc2c1,IC50,AHH-1 [1],> 640 µM
Clc1ccc(CSc2ccc3cc(Br)ccc3n2)cc1,IC50,AHH-1 [1],215 µM
Clc1ccc2nc(SCc3ccc(Br)cc3)ccc2c1,IC50,AHH-1 [1],> 640 µM
O=S(=O)(Cc1ccccc1)c1ccc2cc(F)ccc2n1,IC50,AHH-1 [1],> 640 µM
N#Cc1ccc(CSc2ccc3cc(Br)ccc3n2)cc1,IC50,AHH-1 [1],146 µM
[O-][S+](Cc1ccc(F)cc1)c1ccc2ccccc2n1 (centres undefined),IC50,AHH-1 [1],> 640 µM
[O-][S+](Cc1ccc(F)cc1)c1ccc2cc(Cl)ccc2n1 (centres undefined),IC50,AHH-1 [1],> 640 µM
O=S(=O)(Cc1ccc(Cl)cc1)c1ccc2cc(Br)ccc2n1,IC50,AHH-1 [1],> 640 µM
same,Activity,AHH-1 [3],27.81%
Clc1ccc(CSc2ccc3ccccc3n2)cc1,IC50,AHH-1 [1],73 µM
